In series [1] the test system is SKBR3 cells. Put plainly: Cellular lipid-ROS by C11-BODIPY flow cytometry. It is filed as cell-based. An excerpt: (§1) Thus, it was concluded that SGC-GAK-1 induces ferroptosis in ADCK3-amplified cells, perhaps by reducing the levels of ADCK3 and CoQ10.
For orientation: Flow cytometry measures light scatter and fluorescence of single cells or particles in a stream.

In series [2] the test system is SKBR3 cells. Put plainly: SKBR3 cell death / viability on SGC-GAK-1 treatment. Format: cell-based.
Text: as §1

Series [3] deals with ADCK3 knockdown/knockout SKBR3 cells. Description: Ferroptosis induction in ADCK3 knockdown/knockout SKBR3 cells (CellTiter-Glo). It is filed as cell-based. The settings on record: for rescue of RSL3-induced death in siRNA ADCK3 knockdown cells: SKBR3, siRNA ADCK3, RSL3 48 h. How it is done:
At 48 h after transfection, cells were treated with RSL3 in 2-fold dilution series for 48 h, in combination with ferrostatin-1 or idebenone. Viability was measured with CellTiter-Glo®. […] Stable CRISPR cells were treated with FIN56 in 2-fold dilution series in combination with ferrostatin-1, for 48 h. Viability was measured with CellTiter-Glo®. […] (grey) cells were treated with RSL3 or FIN56 in 2-fold dilution series in combination with 2 μM ferrostatin-1 for 48 h. Viability was measured with CellTiter-Glo®.

For series [4], the system named is triple-negative breast cancer. Particulars: cited from earlier work.
The target in series [5] is ADCK3 (Homo sapiens, UniProt Q8NI60). The settings on record: reported, Asquith et al. 2019; cited from earlier work.
The next series has as its system CoQ10. Description: CoQ10 abundance in SKBR3 cells by LC/MS. It is filed as cell-based. Particulars: SKBR3, 50 nM SGC-GAK-1, 48 hours.
Text: CoQ10 abundance in SKBR3 cells treated as in FIG. 6A, measured by LC/MS.
as §1

Series [6] has as its system ADCK3. Description: Western blot of ADCK3 protein levels in SKBR3 cells. It is filed as cell-based. Particulars: SKBR3, 50 nM SGC-GAK-1, 48 hours. The procedure: SKBR3 cells were treated with 50 nM SGC-GAK-1 or vehicle, for 48 h, and analyzed by western blot for ADCK3 and GAPDH levels.
as §1
(In western blotting, separated proteins are transferred to a membrane and probed.)

In series [7] the test system is SKBR3 cells overexpressing ADCK3-FLAG. Put plainly: Ferroptosis induction in SKBR3 cells overexpressing ADCK3-FLAG (CellTiter-Glo). Format: cell-based. Particulars: RSL3 10 or 20 nM, FIN56 78 or 156 nM, 48 h. How it is done:
Viability was measured with CellTiter-Glo®.
ADCK3-FLAG was stably overexpressed in SKBR3 cells through retroviral infection. First, proper localization of the overexpressed protein to the mitochondria was validated by fluorescent microscopy. Similarly to the localization pattern of endogenous ADCK3 to the mitochondria, overexpressed ADCK3-FLAG co-localized with a MitoTracker fluorescent probe (FIG. 5A).
On the technique in general: ATP-based viability assays read luminescence as a measure of living cells.

Series [8] has as its system breast cancer cell lines (high-ADCK3 vs low-ADCK3). Put plainly: Breast cancer cell line panel viability with ferroptosis inducers (CellTiter-Glo). Format: cell-based. Particulars: 2-fold dilution series, 72 hours. How it is done:
Breast cancer cell lines were treated with ferroptosis inducers FIN56 (FIG. 2D) or RSL3 (FIG. 2E) in 2-fold dilution series for 72 hours. Cell viability was measured with CellTiter-Glo®. Ferroptosis-sensitive breast cancer cells are categorized as ‘high-ADCK3’ expressing (orange), while cells that are less sensitive to ferroptosis induction were the ones with ‘low-ADCK3’ (green).
A panel of 10 breast cancer cell lines was selected form the Broad Institute Cancer Cell Line Encyclopedia database (CCLE; https://portals.broadinsitute.org/ccle),based on their ADCK3 copy number and mRNA expression levels, to have a good representation of ADCK3-amplified cells (termed here as ‘high-ADCK3’), as well as a control group expressing normal levels of ADCK3 (termed here as ‘low-ADCK3’; FIG. 2A). To confirm a correlation between high ADCK3 gene/transcript expression and protein expression, ADCK3 levels were measured by western blot (FIG. 2B). Cells were divided into high-ADCK3 (orange in FIGS. 2A-2E) and low-ADCK3 (green in FIGS. 2A-2E) according to the protein expression level. […] High ADCK3 protein levels correlated with high CoQ10 abundance, measured by LC-MS (FIG. 2C). […]

The text below walks through data of patent publication US20230035422A1, “METHODS FOR TREATING DISEASES BY TARGETING ONCOGENIC LIPIDS” (THE TRUSTEES OF COLUMBIA UNIVERSITY IN THE CITY OF NEW YORK, priority 2020, published 2023).

Chain of ADCK3 (Homo sapiens, UniProt Q8NI60) (Q8NI60 163-647): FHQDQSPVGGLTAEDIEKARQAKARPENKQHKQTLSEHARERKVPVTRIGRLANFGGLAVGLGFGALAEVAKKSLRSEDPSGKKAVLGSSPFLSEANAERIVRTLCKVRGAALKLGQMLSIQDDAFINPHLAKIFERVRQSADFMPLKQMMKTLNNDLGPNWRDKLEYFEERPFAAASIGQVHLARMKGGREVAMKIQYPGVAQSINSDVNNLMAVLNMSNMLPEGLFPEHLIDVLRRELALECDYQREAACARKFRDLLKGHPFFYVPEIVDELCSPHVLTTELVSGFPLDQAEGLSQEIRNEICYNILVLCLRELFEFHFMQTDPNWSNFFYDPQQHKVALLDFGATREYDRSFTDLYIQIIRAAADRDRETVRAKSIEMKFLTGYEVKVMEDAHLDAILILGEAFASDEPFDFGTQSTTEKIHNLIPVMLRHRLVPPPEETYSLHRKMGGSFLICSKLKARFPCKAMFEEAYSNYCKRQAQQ

`CCOC(=O)c1ccc(NC2CCCCC2)c(N)c1` [ferrostatin-1]: the “rescue of SGC-GAK-1-induced increase in cellular lipid-ROS” value in the series with SKBR3 cells [1] (SKBR3, 2 µM ferrostatin-1) is on record as “rescued”. Moreover, the “rescue of SGC-GAK-1-induced ferroptotic death” value in the series on SKBR3 cells [2] (SKBR3, 1 µM ferrostatin-1) was “rescued”. The “rescue of death and sensitization in CRISPR/shRNA ADCK3 knockout cells” value in series [3] (SKBR3, RSL3 or FIN56 with ferrostatin-1 (2 µM in shRNA cells)) is “rescued”. Moreover, the “rescue of RSL3-induced death in siRNA ADCK3 knockdown cells” value in [3] is given as “rescued”.

As to “Tecentriq: approved in combination with protein-bound paclitaxel for unresectable triple-negative breast cancer whose tumors express PD-L1”, the “patients who experienced adverse reactions” value in [4] (in vivo) was “greater than 20%”. Also, in series [4] (with protein-bound paclitaxel, PD-L1 expressing unresectable triple-negative breast cancer), the median progression-free survival is 7.4 months. For the same molecule, the “extension of median progression-free survival” value in [4] (with protein-bound paclitaxel, from 4.8 to 7.4) was 2.6 months.

With `COc1cc(Nc2ccnc3ccc(Br)cc23)cc(OC)c1OC` [SGC-GAK-1], at ADCK3 [5], the “inhibitory activity against ADCK3” value is “nanomolar inhibitory activity”. Besides, the lipid-ROS entry in the series on SKBR3 cells [1] (SKBR3, 50 nM SGC-GAK-1, 48 h, C11-BODIPY) is on record as “increase in lipid-ROS”. For the same molecule, in the series with SKBR3 cells [2] (SGC-GAK-1 combined with RSL3), the “sensitivity of SKBR3 cells to RSL3-mediated ferroptotic death” value is listed as “further potentiated SKBR3 cells to RSL3-mediated ferroptotic death”. Also, the “cell death induced by SGC-GAK-1 alone” value with SKBR3 cells [2] (SKBR3 cells, with or without ferrostatin-1) is “induced cell death that was rescued by the ferroptosis inhibitor ferrostatin-1”. Further, in the series on CoQ10, the CoQ10 levels entry was “reduced CoQ10 levels”. The ADCK3 protein levels result in the series with ADCK3 [6] was “marked reduction in ADCK3 protein levels”.

For `COC(=O)c1ccc([C@@H]2c3[nH]c4ccccc4c3C[C@@H](C(=O)OC)N2C(=O)CCl)cc1` [RSL3], in [7], the “cytotoxic effect in cells overexpressing ADCK3 compared to control” value is listed as “statistically significant reduction in cytotoxic effect”. Further, the “sensitivity to ferroptosis induction of cells with amplified ADCK3 expression” value in series [8] is “distinct higher sensitivity”. Besides, in series [3] (SKBR3, siRNA ADCK3 vs non-targeting control, 48 h treatment), the “sensitivity of siRNA ADCK3 knockdown cells to ferroptosis inducer” value was “increased the sensitivity”.

Consider `COC1=C(OC)C(=O)C(CCCCCCCCCCO)=C(C)C1=O` [idebenone], for which the “rescue of RSL3-induced death in siRNA ADCK3 knockdown cells” value in series [3] is reported as “rescued”.

Turning to `O=S(=O)(NC1CCCCC1)c1ccc2c(c1)C(=NO)c1cc(S(=O)(=O)NC3CCCCC3)ccc1-2` [FIN56], the “cytotoxic effect in cells overexpressing ADCK3 compared to control” value in [7] was “statistically significant reduction in cytotoxic effect”. In series [8], the “sensitivity to ferroptosis induction of cells with amplified ADCK3 expression” value is “distinct higher sensitivity”.
